# According to patent US20240076609A1, “COMPOSITIONS AND METHODS FOR CULTURING AND EXPANDING CELLS” (LIFE TECHNOLOGIES CORPORATION, priority 2017, published 2024):
# Where “and” joins values, the source holds several entries; their conditions need not be identical. Identical values can stand only once.
# Assays:
# Pan CD3+ T cells = assay: T cell expansion with 2-DG titration (population doublings); type: cell-based, human
# Protocol: 2-Deoxy-D-Glucose Preparation: 2-Deoxy-D-Glucose (2-DG, 164.16 g/mol) was manufactured by (Acros Organics, cat. no. 111980-250). The 2-DG solution was prepared in sterile filtered water at a stock concentration of 100 mM, then aliquoted in Eppendorf tubes at a final volume of 1 mL in each tube. Cell Culture: T cell isolation: De-identified, frozen apheresis bags from normal donors were obtained from HemaCare Corp. Van Nuys, CA 91406. T cells were negatively isolated from PBMCs with the DYNABEADS® […] Human T Cells kit (Thermo Fisher Scientific, Cat. No. 11344D). T cell activation and expansion: T cells (seeding density 1×10^6 vc/mL) were activated with DYNABEADS® Human T-Expander CD3/CD28 (Thermo Fisher Scientific, Cat. No. 11141D) at a ratio of 3 beads per T cell and cultured in serum-free medium, animal origin free medium. T cells were counted on days 5, 7, 10, and 12 on a Vi-CELL XR analyzer (Beckman Coulter, Indianapolis IN) and fed with or without 2-DG (0.25 mM, 0.5 mM, 1 mM, 2 mM, and 4 mM) and 5% human AB serum to a density of 5×10^5 vc/mL on days 3, 5, and 7 and 1×10^6 vc/mL on day 10. 2-Deoxy-D-Glucose Preparation: 2-Deoxy-D-Glucose (2-DG, 164.16 g/mol) is manufactured by Acros Organics (part of Thermo Fisher Scientific). The 2-DG solution was prepared in sterile filtered water at a stock concentration of 100 mM, then aliquoted in Eppendorf tubes at a final volume of 1 mL in each tube. Cell Culture: T cell isolation: De-identified, frozen apheresis bags from normal donors were obtained from HemaCare. T cells were negatively isolated from PBMCs with the DYNABEADS® […] Human T Cells kit (Thermo Fisher Scientific, Cat. No. 11344D). T cell activation and expansion: T cells (seeding density 1×10^6 vc/mL) were activated with DYNABEADS® Human T-Expander CD3/CD28 (Thermo Fisher Scientific, Cat. No. 11141D) at a ratio of 3 beads per T cell and cultured in serum-free medium, animal origin free medium. T cells were counted on days 5, 7, 10, and 12 on a Vi-CELL XR analyzer (Beckman Coulter, Indianapolis IN) and fed with or without 2-DG (0.25 mM, 0.5 mM, 1 mM, 2 mM, and 4 mM) and 5% human AB serum to a density of 5×10^5 vc/mL on days 3, 5, and 7 and 1×10^6 vc/mL on day 10.
# [1] = test system: mixed CD4+ T cells and CD8+ T cells; assay: CD4+/CD8+ frequencies after 10 days with 2-DG in mixed CD4+:CD8+ cells (5:1, 10:1); type: cell-based, human; settings: 0.25 mM 2-DG; for correction of deficits in CD8+ T cells compared to day 0: CD4+:CD8+ mixed 5:1 and 10:1
# Protocol: For some studies, CD8+ and CD4+ T cells were isolated from PBMCs by negative selection using Untouched Human CD8+ and CD4+ T Cells Kits. Naïve and non-naïve T cells were isolated from enriched T cells by positive selection using CD45RA nanobeads (Miltenyi). Phenotype: Primary human T cells were expanded for 10 days with and without 2-DG and 5% human AB serum. DYNABEADS® were removed from 2×10^6 cells by magnetic separation. Surface staining was performed with antibodies against CD3 (Invitrogen, Cat. No. CD0329), CD4 (Molecular Probes, Cat. No. A15858), CD8 (Invitrogen, Cat. No. MHCD0828). Flow cytometric analysis was performed on a Gallios flow cytometer and Kaluza software (Beckman Coulter, Indianapolis IN). For some studies, CD8+ and CD4+ T cells were isolated from PBMCs by negative selection using Untouched Human CD8+ and CD4+ T Cells Kits. Naïve and non-naïve T cells were isolated from enriched T cells by positive selection using CD45RA nanobeads (Miltenyi). Phenotype: Primary human T cells were expanded for 10 days with and without 2-DG and 5% human AB serum. DYNABEADS® were removed from 2×10^6 cells by magnetic separation. Surface staining was performed with antibodies against CD3 (Invitrogen, Cat. No. CD0329), CD4 (Molecular Probes, Cat. No. A15858), CD8 (Invitrogen, Cat. No. MHCD0828). Flow cytometric analysis was performed on a Gallios flow cytometer and Kaluza software (Beckman Coulter, Indianapolis IN).
# [2] = Day 10, 10:1 CD4+ CD8+ ratio, average
# [3] = Day 10, 5:1 CD4+ CD8+ ratio, replicates
# [4] = Day 10, 10:1 CD4+ CD8+ ratio, replicates
smiles,measurement,setting,value
"O=CC[C@@H](O)[C@H](O)[C@H](O)CO [2-DG, 2-Deoxy-D-Glucose]",Cultured T Cell Population Doublings,"Pan CD3+ T cells; 0.25 mM 2-DG, day 5, Table 12",1.79
same,Cultured T Cell Population Doublings,"Pan CD3+ T cells; 0.25 mM 2-DG, day 5, single values, Table 31",1.44 and 1.64 and 1.57
same,Cultured T Cell Population Doublings,"Pan CD3+ T cells; 0.25 mM 2-DG, day 7, Table 12",3.67
same,Cultured T Cell Population Doublings,"Pan CD3+ T cells; 0.25 mM 2-DG, day 7, single values, Table 31",3.40 and 3.54 and 3.35
same,Cultured T Cell Population Doublings,"Pan CD3+ T cells; 0.25 mM 2-DG, day 10, Table 12",6.20
same,Cultured T Cell Population Doublings,"Pan CD3+ T cells; 0.25 mM 2-DG, day 10, single values, Table 31",4.85 and 5.70 and 5.81
same,Cultured T Cell Population Doublings,"Pan CD3+ T cells; 0.25 mM 2-DG, day 12, Table 12",6.49
same,Cultured T Cell Population Doublings,"Pan CD3+ T cells; 0.25 mM 2-DG, day 12, single values, Table 31",5.72 and 6.57 and 6.47
same,Cultured T Cell Population Doublings,"Pan CD3+ T cells; 0.5 mM 2-DG, day 5, Table 12",1.81
same,Cultured T Cell Population Doublings,"Pan CD3+ T cells; 0.5 mM 2-DG, day 5, single values, Table 31",1.40 and 1.69 and 1.04
same,Cultured T Cell Population Doublings,"Pan CD3+ T cells; 0.5 mM 2-DG, day 7, Table 12",4.17
same,Cultured T Cell Population Doublings,"Pan CD3+ T cells; 0.5 mM 2-DG, day 7, single values, Table 31",3.95 and 3.32 and 3.33
same,Cultured T Cell Population Doublings,"Pan CD3+ T cells; 0.5 mM 2-DG, day 10, Table 12",6.07
same,Cultured T Cell Population Doublings,"Pan CD3+ T cells; 0.5 mM 2-DG, day 10, single values, Table 31",5.06 and 6.28 and 6.75
same,Cultured T Cell Population Doublings,"Pan CD3+ T cells; 0.5 mM 2-DG, day 12, Table 12",6.16
same,Cultured T Cell Population Doublings,"Pan CD3+ T cells; 0.5 mM 2-DG, day 12, single values, Table 31",6.13 and 6.22 and 6.48
same,Cultured T Cell Population Doublings,"Pan CD3+ T cells; 1 mM 2-DG, day 5, Table 12",1.15
same,Cultured T Cell Population Doublings,"Pan CD3+ T cells; 1 mM 2-DG, day 5, Table 25",2.08
same,Cultured T Cell Population Doublings,"Pan CD3+ T cells; 1 mM 2-DG, day 7, Table 12",3.40
same,Cultured T Cell Population Doublings,"Pan CD3+ T cells; 1 mM 2-DG, day 7, Table 25",3.87
same,Cultured T Cell Population Doublings,"Pan CD3+ T cells; 1 mM 2-DG, day 10, Table 12",4.93
same,Cultured T Cell Population Doublings,"Pan CD3+ T cells; 1 mM 2-DG, day 10, Table 25",7.19
same,Cultured T Cell Population Doublings,"Pan CD3+ T cells; 1 mM 2-DG, day 12, Table 12",4.60
same,Cultured T Cell Population Doublings,"Pan CD3+ T cells; 1 mM 2-DG, day 12, Table 25",7.00
same,Cultured T Cell Population Doublings,"Pan CD3+ T cells; 2 mM 2-DG, day 5, Table 12",0.15
same,Cultured T Cell Population Doublings,"Pan CD3+ T cells; 2 mM 2-DG, day 5, Table 25",1.87
same,Cultured T Cell Population Doublings,"Pan CD3+ T cells; 2 mM 2-DG, day 7, Table 12",1.33
same,Cultured T Cell Population Doublings,"Pan CD3+ T cells; 2 mM 2-DG, day 7, Table 25",3.53
same,Cultured T Cell Population Doublings,"Pan CD3+ T cells; 2 mM 2-DG, day 10, Table 12",3.29
same,Cultured T Cell Population Doublings,"Pan CD3+ T cells; 2 mM 2-DG, day 10, Table 25",7.10
same,Cultured T Cell Population Doublings,"Pan CD3+ T cells; 2 mM 2-DG, day 12, Table 12",2.44
same,Cultured T Cell Population Doublings,"Pan CD3+ T cells; 2 mM 2-DG, day 12, Table 25",6.90
same,population doublings,Pan CD3+ T cells; 4 mM 2-DG,about 6 population doublings
same,Cultured T Cell Population Doublings,"Pan CD3+ T cells; 4 mM 2-DG, day 5, Table 12",2.24
same,Cultured T Cell Population Doublings,"Pan CD3+ T cells; 4 mM 2-DG, day 5, Table 25",1.92
same,Cultured T Cell Population Doublings,"Pan CD3+ T cells; 4 mM 2-DG, day 7, Table 12",3.84
same,Cultured T Cell Population Doublings,"Pan CD3+ T cells; 4 mM 2-DG, day 7, Table 25",3.95
same,Cultured T Cell Population Doublings,"Pan CD3+ T cells; 4 mM 2-DG, day 10, Table 12",6.78
same,Cultured T Cell Population Doublings,"Pan CD3+ T cells; 4 mM 2-DG, day 10, Table 25",7.50
same,Cultured T Cell Population Doublings,"Pan CD3+ T cells; 4 mM 2-DG, day 12, Table 12",6.63
same,Cultured T Cell Population Doublings,"Pan CD3+ T cells; 4 mM 2-DG, day 12, Table 25",7.35
same,expansion compared to control,Pan CD3+ T cells; 2-DG at 0.25 mM and 0.5 mM,expansion comparable to control
same,effect of 2-DG supplementation on T cell growth,Pan CD3+ T cells; concentrations tested 0.25-4 mM,does not affect T cell growth even with lower concentrations
same,% CD4+,"[1]; Day 10, 10:1 CD4+ CD8+ ratio",44.89% and 44.25%
same,% CD4+ (Avg),"[1]; Day 10, 10:1 CD4+ CD8+ ratio",44.57%
same,% CD8+,"[1]; Day 10, 10:1 CD4+ CD8+ ratio",43.55% and 45.35%
same,% CD8+ (Avg),"[1]; Day 10, 10:1 CD4+ CD8+ ratio",44.45%
same,% CD4+ (Avg),[1]; [2],44.57%
same,% CD8+ (Avg),[1]; [2],44.45%
same,% CD4+ (Avg),"[1]; Day 10, 5:1 CD4+ CD8+ ratio",33.39%
same,% CD8+ (Avg),"[1]; Day 10, 5:1 CD4+ CD8+ ratio",53.83%
same,% CD4+,[1]; [3],32.91% and 33.88%
same,% CD8+,[1]; [3],53.50% and 54.17%
same,% CD4+,[1]; [4],44.25% and 44.89%
same,% CD8+,[1]; [4],45.35% and 43.55%
same,correction of deficits in CD8+ T cells compared to day 0,[1],able to correct for a large deficits in CD8+ T cells
same,correction of deficits in CD8+ T cells compared to day 0,[1]; listed as 2-DH,able to correct for substantial deficits in CD8+ T cells
